From ChEMBL document CHEMBL5500382, “Discovery of potent small molecule ubiquitin-specific protease 10 inhibitors with anti-hepatocellular carcinoma activity through regulating YAP expression” (Eur J Med Chem, 2024) come the findings set out here.

SMILES strings stand for the structures. pIC50: −log10 of the molar value. Some results are limits rather than exact numbers.

T2 sequence (Q14694 whole entry): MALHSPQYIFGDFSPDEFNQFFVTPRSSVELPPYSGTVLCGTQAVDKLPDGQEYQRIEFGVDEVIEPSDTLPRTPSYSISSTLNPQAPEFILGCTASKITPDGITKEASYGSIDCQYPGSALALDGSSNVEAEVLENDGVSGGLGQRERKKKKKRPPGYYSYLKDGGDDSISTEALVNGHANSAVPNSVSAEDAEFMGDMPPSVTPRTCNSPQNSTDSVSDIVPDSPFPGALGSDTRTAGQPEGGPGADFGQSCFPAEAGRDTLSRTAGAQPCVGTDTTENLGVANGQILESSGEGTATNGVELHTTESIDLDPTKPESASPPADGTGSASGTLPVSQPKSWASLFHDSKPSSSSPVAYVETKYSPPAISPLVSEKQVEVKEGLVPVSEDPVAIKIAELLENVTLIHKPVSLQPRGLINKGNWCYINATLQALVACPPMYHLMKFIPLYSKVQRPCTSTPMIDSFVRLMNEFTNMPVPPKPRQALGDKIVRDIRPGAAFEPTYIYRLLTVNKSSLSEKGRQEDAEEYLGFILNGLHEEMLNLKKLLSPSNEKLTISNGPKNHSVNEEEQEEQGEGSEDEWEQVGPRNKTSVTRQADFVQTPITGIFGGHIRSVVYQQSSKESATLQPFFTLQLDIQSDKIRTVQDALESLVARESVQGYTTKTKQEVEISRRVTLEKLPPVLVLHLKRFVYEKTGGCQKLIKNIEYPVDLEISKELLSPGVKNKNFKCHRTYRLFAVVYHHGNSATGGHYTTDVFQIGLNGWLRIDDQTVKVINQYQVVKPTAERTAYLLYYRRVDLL

The first experiment addresses T1, Ubiquitin carboxyl-terminal hydrolase 13 (Homo sapiens, UniProt Q92995).
T1 sequence (Q92995 whole entry): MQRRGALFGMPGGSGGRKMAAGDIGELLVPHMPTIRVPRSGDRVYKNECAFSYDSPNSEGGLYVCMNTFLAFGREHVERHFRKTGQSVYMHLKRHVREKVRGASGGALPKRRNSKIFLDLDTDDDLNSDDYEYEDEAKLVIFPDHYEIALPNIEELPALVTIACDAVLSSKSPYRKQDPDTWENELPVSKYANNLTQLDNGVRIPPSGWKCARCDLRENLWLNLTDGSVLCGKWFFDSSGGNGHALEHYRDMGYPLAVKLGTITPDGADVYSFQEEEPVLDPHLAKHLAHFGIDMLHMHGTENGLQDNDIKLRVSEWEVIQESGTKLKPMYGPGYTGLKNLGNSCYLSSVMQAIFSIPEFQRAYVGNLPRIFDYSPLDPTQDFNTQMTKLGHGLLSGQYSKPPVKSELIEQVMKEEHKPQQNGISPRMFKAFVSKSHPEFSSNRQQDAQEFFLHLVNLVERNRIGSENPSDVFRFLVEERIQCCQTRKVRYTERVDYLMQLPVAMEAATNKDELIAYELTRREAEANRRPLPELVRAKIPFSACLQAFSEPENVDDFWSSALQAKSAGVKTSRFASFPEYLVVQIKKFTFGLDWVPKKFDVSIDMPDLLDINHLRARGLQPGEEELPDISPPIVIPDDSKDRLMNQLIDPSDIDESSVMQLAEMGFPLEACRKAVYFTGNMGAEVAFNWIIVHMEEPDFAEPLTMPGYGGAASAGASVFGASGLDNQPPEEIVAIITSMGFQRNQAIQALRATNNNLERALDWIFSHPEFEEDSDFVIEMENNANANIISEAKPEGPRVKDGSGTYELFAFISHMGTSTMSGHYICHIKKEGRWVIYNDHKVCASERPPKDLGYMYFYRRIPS
Briefly: Inhibition of USP13 (unknown origin).
Usually pIC50 stands for the IC50 on a negative log10 scale, so that one unit is a factor of ten. Take `Fc1ccc(CNc2ncnc3ccc(F)cc23)cc1`: the pIC50 is 6.15.

The next experiment has as its target T2, Ubiquitin carboxyl-terminal hydrolase 10 (Homo sapiens, UniProt Q14694). Briefly: Inhibition of human recombinant his tagged USP10 assessed as deubiquitinase activity.
For `CCOC(=O)c1cc([N+](=O)[O-])c(Oc2ccc(C(=O)OC)cc2)s1`, the pIC50 is 5.08.

A further experiment concerns the target T2, Ubiquitin carboxyl-terminal hydrolase 10. Briefly: Inhibition of human USP10 deubiquitinase activity using Ubiquitin 7-amino-4-carbamoylmethylcoumarin as substrate preincubated for 30 mins followed by substrate addition and measured after 30 mins by fluorometric assay.
For `Cc1ccccc1NC(=O)c1cn(CC(=O)N2CC3(CCN(C(=O)OC(C)(C)C)CC3)C2)c2cc(C(F)(F)F)ccc2c1=O`, the pIC50 was less than 4.52.

Turning to `Cc1ccc2c(=O)c(C(=O)N3CCOCC3)cn(CC(=O)NCCc3ccc(Cl)cc3)c2n1`, the pIC50 is less than 4.52.

The molecule `COc1ccc2c(=O)c(-c3nc(-c4ccccc4C)no3)cn(CC(=O)NCCc3ccc(Cl)cc3)c2c1` showed a pIC50 of 5.10.

In the case of `Cc1ccc2c(=O)c(-c3nc(-c4ccccc4C)no3)cn(CC(=O)Nc3c(F)cccc3F)c2n1`, the pIC50 is 4.95.

In turn, `Cc1ccc2c(=O)c(-c3nc(-c4ccccc4C)no3)cn(CC(=O)NC3CCN(c4ccc(Cl)cc4)CC3)c2c1` showed a pIC50 of 5.04.

The molecule `C[C@H](NC(=O)c1cn(CC(=O)NCCc2ccc(Cl)cc2)c2cc(F)ccc2c1=O)c1ccccc1` gave a pIC50 of 4.92.

Consider `COCCOc1ccc(N2CCN(C(=O)Cn3cc(C(=O)Nc4ccccc4C)c(=O)c4ccc(C(F)(F)F)cc43)CC2)cc1`, for which the pIC50 is less than 4.52.

`Cc1ccc2c(=O)c(C(=O)N[C@@H](C)c3ccc(F)cc3)cn(CC(=O)NCCc3ccc(Cl)cc3)c2c1` showed a pIC50 of less than 4.52.

Turning to `Cc1ccccc1NC(=O)c1cn(CC(=O)N2CCC(N3CCN(C)CC3)CC2)c2cc(C(F)(F)F)ccc2c1=O`, the pIC50 is less than 4.52.

In turn, `Cc1ccccc1NC(=O)c1cn(CC(=O)NCCc2ccc(Cl)cc2)c2cc(N3CCCCC3)ccc2c1=O` gave a pIC50 of 4.97.

In turn, `Cc1ccccc1NC(=O)c1cn(CC(=O)NC(C)CO)c2cc(C(F)(F)F)ccc2c1=O` (stereo not given) gave a pIC50 of less than 4.52.

The molecule `Cc1ccccc1NC(=O)c1c[nH]c2cc(C(F)(F)F)ccc2c1=O` had a pIC50 of less than 4.52.

`Cc1ccccc1NC(=O)c1cn(CC(=O)NCCc2ccc(Cl)cc2)c2cc(N3CCOCC3)ccc2c1=O`: the pIC50 was 5.08.

Consider `Cc1ccc2c(=O)c(C(=O)Nc3ccccc3C)cn(CC(=O)NCCc3ccc(Cl)cc3)c2n1`, for which the pIC50 was 5.02.

Turning to `Cc1ccc2c(=O)c(C(=O)N[C@@H](C)c3ccccc3)cn(CC(=O)NCCc3ccc(Cl)cc3)c2c1`, the pIC50 is less than 4.52.

`Cc1ccccc1NC(=O)c1cn(CC(=O)NCCc2ccc(Cl)cc2)c2ccc(F)cc2c1=O` gave a pIC50 of less than 4.52.

Regarding `COc1ccc([C@H](C)NC(=O)c2cn(CC(=O)NCCc3ccc(Cl)cc3)c3cc(C)ccc3c2=O)cc1`, the pIC50 was 4.67.

Regarding `Cc1ccc2c(=O)c(-c3nnc(Cc4ccccc4)o3)cn(CC(=O)NCCc3ccc(Cl)cc3)c2c1`, the pIC50 was 5.05.

In turn, `Cc1ccc2c(=O)c(C(=O)N[C@@H](C)c3ccccc3)cn(CC(=O)N3CCN(c4ccc(Cl)cc4)CC3)c2c1` gave a pIC50 of 4.96.

Take `Cc1ccc2c(=O)c(C(=O)NC3CCOCC3)cn(CC(=O)NCCc3ccc(Cl)cc3)c2n1`: the pIC50 is less than 4.52.

Consider `Cc1ccc2c(c1)c(=O)c(C(=O)Nc1ccccc1C)cn2CC(=O)NCCc1ccc(Cl)cc1`, for which the pIC50 is less than 4.52.

Regarding `C[C@H](NC(=O)c1cn(CC(=O)NCCc2ccc(Cl)cc2)c2cc(C(F)(F)F)ccc2c1=O)c1ccccc1`, the pIC50 was less than 4.52.

The test system of another experiment is Bel-7402. Briefly: Antiproliferative activity against human Bel-7402 cells by CCK-8 method. A general note: Formazan colour is commonly taken as a measure of viable cells.
On to `Cc1ccc2c(=O)c(-c3nc(-c4ccccc4C)no3)cn(CC(=O)Nc3c(F)cccc3F)c2n1`, for which the pIC50 was 4.64.
